Values of other authors, collected in patent publication US20090191287A1, “Mitigation of Inflammation-Related Injuries” (priority 2008, published 2009).

Experiments:
myocardium at risk = details: allopurinol-pretreated dogs, left anterior descending artery ligated; control group 23%
heart infarct = details: dogs pretreated with allopurinol; control dogs 40%
[1] = tested on: high-risk coronary surgery patients; details: high-risk coronary surgery patients pretreated before operating; placebo 17%

Oc1ncnc2[nH]ncc12 [allopurinol]
myocardium at risk destroyed (myocardial necrosis) (myocardium at risk): 9%
heart infarct size (heart infarct): 22%
mortality rate [1]: 4%
